≈ marks a conversion by molar mass, not a printed value.
How the values were obtained:
Format in all cases: cell-based
[1] = system: Brevibacterium epidermidis (ATCC 35514); assay: MIC determination by turbidimetric growth curves; details: 16 h, 37° C., turbidimetry 620 nm
Description: (§1) The observation that the compounds of formula (I) are very particularly suitable for combating microorganisms which are responsible for body odor is based on a series of investigations relating to the particularly relevant microorganisms Staphylococcus epidermidis Corynebacterium xerosis, and Brevibacterium epidermidis. The antimicrobial action of the compounds of formula (I) is here detected with the assistance of a turbidimetric measurement method. Turbidity measurement is used to establish growth curves for the particular microorganism in the presence and absence of an antimicrobial active ingredient. A possible inhibitory action of the test substance used is identified from the profile of the growth curves. Solutions with saline or DMSO for 100% growth are prepared as a negative control. The active substances to be investigated are first diluted in DMSO in reaction vessels. Dilution is carried out in accordance with the concentration range to be tested and corresponds in each case to 100 times the concentration of the subsequent final concentration in the test Testing is usually begun with a final concentration of 2000 ppm (corresponding to 0.2 wt.-%) in the test. Growth curves at final concentrations of 1000 ppm, 500 ppm, 250 ppm, 125 ppm, 64 ppm, 32 ppm, 16 ppm and 8 ppm are subsequently determined. The bacterial cultures are then incubated in the presence of the various final concentrations of antimicrobial active ingredient for 16 h (incubation temperature: 37° C.). The absorption values (wavelength 620 nm; measurement interval: 20 minutes) obtained over the 16 hour period of turbidimetric measurement are recorded and exported into the spreadsheet program MS Excel. Means from in each case three parallel batches are calculated and used as the basis for establishing growth curves. The curves of the individual test sample concentrations are compared with those for the negative controls and the MIC value (minimum inhibitory concentration) is determined. The MIC value is the concentration at which no further growth is observable by turbidimetry.

[2] = system: Corynebacterium xerosis (DSM 20743); assay: MIC determination by turbidimetric growth curves; details: 16 h, 37° C., turbidimetry 620 nm
Description: as §1

[3] = system: Staphylococcus epidermidis (ATCC 12228); assay: MIC determination by turbidimetric growth curves; details: ATCC12228, 16 h, 37° C., turbidimetry 620 nm, read-out: MIC (complete inhibition of growth, usage concentration)
Description: as §1

[4] = system: Corynebacterium xerosis (DSM 20743); assay: quantitative suspension test
[5] = system: Staphylococcus epidermidis (ATCC 12228); assay: quantitative suspension test
[6] = system: Brevibacterium epidermidis (ATCC 35514); assay: quantitative suspension test
[7] = system: Corynebacterium xerosis (DSM 20743, ATCC 373) biofilm; assay: Biofilm formation, classic assay (crystal violet staining CV580); details: 12.5 μg/ml
Description: The recognition that the compounds of formula (I) are also very particularly suitable for either inhibition of initial biofilm formation and stagnation or even detachment of pre-existing biofilms is based on a series of investigations relating to the particularly relevant microorganism Corynebacterium xerosis. The antimicrobial action of the compounds of formula (I) on biofilms is hereby detected with the assistance of a staining method. Crystal violet staining is used to quantify amount of biofilm in the presence and absence of an antimicrobial active ingredient. A possible inhibitory action of the test substance used is identified from the staining profile. Corynebacterium xerosis can adhere to artificial laboratory surfaces and contribute to biofilm formation much the same way as it can do on skin in vivo. Therefore we furtheron established a test system to evaluate the influence of antimicrobial active compounds of formula (I) on Corynebacterium xerosis forming a biofilm or already residing in a biofilm. […] Biofilm formation can be analyzed by crystal violet staining with subsequent spectroscopic quantitation at 580 nm (CV580). […] Anti-microbial effects of test compounds on biofilm formation was determined by CV580 crystal violet staining 18-24 hours after inoculation and several washing steps that are needed to separate planctonic grown microorganisms.

[8] = system: Corynebacterium xerosis (DSM 20743, ATCC 373) biofilm; assay: Biofilm, mid-log assay on pre-existing biofilm (crystal violet staining CV580); details: 12.5 μg
Description: The recognition that the compounds of formula (I) are also very particularly suitable for either inhibition of initial biofilm formation and stagnation or even detachment of pre-existing biofilms is based on a series of investigations relating to the particularly relevant microorganism Corynebacterium xerosis. The antimicrobial action of the compounds of formula (I) on biofilms is hereby detected with the assistance of a staining method. Crystal violet staining is used to quantify amount of biofilm in the presence and absence of an antimicrobial active ingredient. A possible inhibitory action of the test substance used is identified from the staining profile. […] Biofilm formation can be analyzed by crystal violet staining with subsequent spectroscopic quantitation at 580 nm (CV580). […] Optical density OD580 was then measured followed by crystal violet staining and spectroscopic quantitation of the biofilm at 580 nm (CV580). Mid-log time point was determined by cultivating untreated C. xerosis cells on separate control plates. CV580 crystal violet staining data of untreated control cells at mid-log were recorded. […] CV580 of untreated control samples was also recorded. […] Thus, untreated control cells will reach a value of 200%, corresponding to twice the exactly determined mid-log time point (half-maximal values for CV580; which was set 100%). […]

| MIC [3] [µg/mL] | SMILES | concentration establishing inhibition of the growth [1] | concentration establishing inhibition of the growth [2] | antimicrobial activity in quantitative suspension test [4] | antimicrobial activity in quantitative suspension test [5] | antimicrobial activity in quantitative suspension test [6] | biofilm formation inhibition [7] [%] | biofilm observed compared to the untreated control (set to 200%; mid-log value 100%) [8] [%] |
| --- | --- | --- | --- | --- | --- | --- | --- | --- |
| 64 (≈ 347 µM) | CC(CO)CCCC1CCCCC1 (stereo not shown) [5-cyclohexyl-2-methyl-pentanol] | below 0.2 wt. % | below 0.2 wt. % | confirm the antimicrobial activity | confirm the antimicrobial activity | confirm the antimicrobial activity | 92 | 53 |
| 16 (≈ 75.3 µM) | CCCC(CO)CCCC1CCCCC1 (stereo not shown) [5-cyclohexyl-2-n-propyl-pentanol] | below 0.2 wt. % | below 0.2 wt. % | confirm the antimicrobial activity | confirm the antimicrobial activity | confirm the antimicrobial activity | 65 | 100 |
